# Tests used:
# CNS GC 4537 = assay: Broth dilution MIC; type: cell-based; settings: Mueller-Hinton broth, 18 hours at 35° C.
# Method in brief: (§1)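 Standard broth dilution method in Mueller-Hinton medium; growth inhibition scored after 18 hours at 35° C.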
# CNS GC 4538 = assay: Broth dilution MIC; type: cell-based; settings: Mueller-Hinton broth, 18 hours at 35° C.
# Method in brief: as §1
# CNS GC 4547 = assay: Broth dilution MIC; type: cell-based; settings: Mueller-Hinton broth, 18 hours at 35° C.
# Method in brief: as §1
# E. cloacae GC 3783 = assay: Broth dilution MIC; type: cell-based; settings: Mueller-Hinton broth, 18 hours at 35° C.
# Method in brief: as §1
# E. coli GC 2203 = assay: Broth dilution MIC; type: cell-based; settings: Mueller-Hinton broth, 18 hours at 35° C.
# Method in brief: as §1
# E. coli GC 3226 = assay: Broth dilution MIC; type: cell-based; settings: Mueller-Hinton broth, 18 hours at 35° C.
# Method in brief: as §1
# E. coli GC 4559 = assay: Broth dilution MIC; type: cell-based; settings: Mueller-Hinton broth, 18 hours at 35° C.
# Method in brief: as §1
# E. coli GC 4560 = assay: Broth dilution MIC; type: cell-based; settings: Mueller-Hinton broth, 18 hours at 35° C.
# Method in brief: as §1
# E. faecalis GC 242 = assay: Broth dilution MIC; type: cell-based; settings: Mueller-Hinton broth, 18 hours at 35° C.
# Method in brief: as §1
# E. faecalis GC 4555 = assay: Broth dilution MIC; type: cell-based; settings: Mueller-Hinton broth, 18 hours at 35° C.
# Method in brief: as §1
# E. faecalis GC 842 = assay: Broth dilution MIC; type: cell-based; settings: Mueller-Hinton broth, 18 hours at 35° C.
# Method in brief: as §1
# K. pneumoniae GC 4534 = assay: Broth dilution MIC; type: cell-based; settings: Mueller-Hinton broth, 18 hours at 35° C.
# Method in brief: as §1
# M. morganii GC 4531 = assay: Broth dilution MIC; type: cell-based; settings: Mueller-Hinton broth, 18 hours at 35° C.
# Method in brief: as §1
# P. aeruginosa GC 2214 = assay: Broth dilution MIC; type: cell-based; settings: Mueller-Hinton broth, 18 hours at 35° C.
# Method in brief: as §1
# P. aeruginosa GC 4532 = assay: Broth dilution MIC; type: cell-based; settings: Mueller-Hinton broth, 18 hours at 35° C.
# Method in brief: as §1
# P. rettgeri GC 4530 = assay: Broth dilution MIC; type: cell-based; settings: Mueller-Hinton broth, 18 hours at 35° C.
# Method in brief: as §1
# S. aureus GC 1131 = assay: Broth dilution MIC; type: cell-based; settings: Mueller-Hinton broth, 18 hours at 35° C.
# Method in brief: as §1
# S. aureus GC 2216 = assay: Broth dilution MIC; type: cell-based; settings: Mueller-Hinton broth, 18 hours at 35° C.
# Method in brief: as §1
# S. aureus GC 4536 = assay: Broth dilution MIC; type: cell-based; settings: Mueller-Hinton broth, 18 hours at 35° C.
# Method in brief: as §1
# S. marcescens GC 4077 = assay: Broth dilution MIC; type: cell-based; settings: Mueller-Hinton broth, 18 hours at 35° C.
# Method in brief: as §1
# [1] = system: Staphylococcus aureus Smith; assay: Acute lethal infection in mice; type: in vivo
# Procedure: (§2) The antibacterial efficacy of AA-896-A1 in vivo against acute lethal infection in mice is established by infecting mice with Staphylococcus aureus Smith or Streptococcus pneumoniae. The mice are treated with AA-896-A1.
# Streptococcus pneumoniae = assay: Acute lethal infection in mice; type: in vivo
# Procedure: as §2
# E. faecalis GC 2242 = assay: Broth dilution MIC; type: cell-based; settings: Mueller-Hinton broth, 18 hours at 35° C.
# Method in brief: as §1
Compound,Antimicrobial Activity (MIC) (CNS GC 4537) [µg/mL],Antimicrobial Activity (MIC) (CNS GC 4538) [µg/mL],Antimicrobial Activity (MIC) (CNS GC 4547) [µg/mL],Antimicrobial Activity (MIC) (E. cloacae GC 3783) [µg/mL],Antimicrobial Activity (MIC) (E. coli GC 2203) [µg/mL],Antimicrobial Activity (MIC) (E. coli GC 3226) [µg/mL],Antimicrobial Activity (MIC) (E. coli GC 4559) [µg/mL],Antimicrobial Activity (MIC) (E. coli GC 4560),Antimicrobial Activity (MIC) (E. faecalis GC 4555) [µg/mL],Antimicrobial Activity (MIC) (E. faecalis GC 842) [µg/mL],Antimicrobial Activity (MIC) (K. pneumoniae GC 4534) [µg/mL],Antimicrobial Activity (MIC) (M. morganii GC 4531) [µg/mL],Antimicrobial Activity (MIC) (P. aeruginosa GC 2214) [µg/mL],Antimicrobial Activity (MIC) (P. aeruginosa GC 4532) [µg/mL],Antimicrobial Activity (MIC) (P. rettgeri GC 4530) [µg/mL],Antimicrobial Activity (MIC) (S. aureus GC 1131) [µg/mL],Antimicrobial Activity (MIC) (S. aureus GC 2216) [µg/mL],Antimicrobial Activity (MIC) (S. aureus GC 4536) [µg/mL],Antimicrobial Activity (MIC) (S. marcescens GC 4077) [µg/mL],further results
"5-O-[5-Amino-5-deoxy-2-O-methyl-β-D-ribofuranosyl]-6-[[3-[3-[[13-(carbamimidoylhydroxy-amino)tridecanoyl]oxy]-2-[2-[[(1-carboxy-2-methylpropyl)carbamoyl]amino]-2-(hexahydro-2-iminopyrimidin-4-yl)acetamido]-4-methylpentanamido]propyl]amino]-1,6-dideoxy-1-(3,4-dihydro-2,4-dioxopyrimidin-1(2H)-yl)-β-D-heptofuranuronic acid [AA-896-A1]",2,1,4,0.5,16,8,32,<=0.03 μg/ml,16,32,>32,>32,16,32,>32,4,8,4,>32,Antimicrobial Activity (MIC) (E. faecalis GC 242): 32 µg/mL; ED50 range (95% confidence limit) [1]: 0.83 to 1.46 mg/kg; ED50 range (95% confidence limit) (Streptococcus pneumoniae): 8.0 to 16.0 mg/kg
"CC(C)CC(NC(=O)C(NC(=O)NC(C(=O)O)C(C)C)C1CCNC(=N)N1)C(=O)NCCCNC(C(=O)O)C(OC1CC(O)C(CN)O1)C1OC(n2ccc(=O)[nH]c2=O)C(O)C1O [AA-896-D3, 5-O-[5-Amino-2,5-dideoxy-β-D-ribofuranosyl]-6-[[3-[2-[2-[[(1-carboxy-2-methylpropyl)-carbamoyl]amino]-2-(hexahydro-2-iminopyrimidin-4-yl)acetamido]-4-methylpentanamido]-propyl]amino]-1,6-dideoxy-1-(3,4-dihydro-2,4-dioxopyrimidin-1(2H)-yl)-β-D-heptofuran-uronic acid]",>32,>32,>32,>32,32,32,>32,0.25 µg/mL,>32,>32,>32,>32,32,>32,>32,>32,>32,>32,>32,Antimicrobial Activity (MIC) (E. faecalis GC 2242): >32 µg/mL

# Source: US7078195B2, “Antibiotics AA-896” (Wyeth Holdings Corporation, priority 2001, dated 2006)
